According to paper PMC5384453, “A multi-functional PEGylated gold(III) compound: potent anti-cancer properties and self-assembly into nanostructures for drug co-delivery” (Chemical Science, 2016):

Assays:
[1] = Hydrolysis in aqueous buffer solutions by 1H NMR; assay type: physicochemical; settings: 24 h, 37 °C; pH 4 (1), pH 4 or 7.4 (2)
[2] = tested on: NCM460 cells; assay: Time-dependent induction of apoptosis, Caspase-3/7 Green ReadyProbes fluorescence microscopy; assay type: cell-based, human; settings: NCM460, 2 μM, Caspase-3/7 Green Reagent
Procedure: B from 20.1 to 25 min and returned to initial conditions and equilibrated for 3 minutes.
The flow rate was 0.4 mL/min and the injection volume was 2 µL. The UPLC-QTOF-MS chromatograms of 1, 3, 4 and solvent control in acetonitrile were also recorded for the interpretation of UPLC-QTOF-MS chromatograms of the cell lysate.
Cellular uptake experiments. HCT116, A2780 and A2780adr (2×10 5 cells), and MIHA and NCM460 (3.5×10 5 cells) cells were grown on 6-well plates at 37 °C under an atmosphere of 5% CO2 for 48 h. The culture medium was then removed, washed with PBS solution, and incubated with culture medium containing nanostructures of 1 […]
Au1a (2 µM; with 1 vol% DMSO). At a predetermined time, the culture medium was removed and washed with PBS solution for three times. […] An aliquot of the cell suspension was subjected to Bio-rad protein assay with a microtitre plate reader at the absorbance at 595 nm, using bovine serum albumin as the protein standard. […] The solution mixture was heated at 65 °C with shaking overnight, and the gold content was determined by ICP-MS. […]
then removed and washed with PBS solution. The cells were then incubated with culture medium containing nanostructures of 1 (2 µM) and CellEvent Caspase-3/7 Green ReadyProbes Reagent (30 µL), or Au1a (2 µM; with 1 vol% DMSO) and CellEvent Caspase-3/7 Green ReadyProbes Reagent (30 µL) at 37 °C under an atmosphere of 5% CO2. […]

[3] = tested on: HCT116 cells; assay: Co-culture model of HCT116 and NCM460, Caspase-3/7 Green flow cytometry; assay type: cell-based, human; settings: 24 h; for population percentage of apoptotic cells (Caspase-3/7 Green, corrected): HCT116 in co-culture with CMF2HC-stained NCM460, 2 μM
Procedure: (§1) This co-culture model treated with 1 for 24 h had 25.04 and 5.01% (Q2 and Q3 regions of Fig. S21a ^†; corrected) of HCT116 and NCM460 cells, respectively, undergoing apoptosis as determined by Caspase-3/7 Green Reagent staining and flow cytometric analysis (Fig. S21 ^†). This confirms the preferential induction of apoptosis by 1 of HCT116 cells over NCM460 cells in the co-culture model, regardless of the effect, if any, of the blue emissive CMF2HC dye.
(§2) atmosphere of 5% CO2. After reaching 80% confluency, the culture medium was
(§3) of 5% CO2 for 45 min. The solution was then removed. The stained NCM460 cells
(§4) the procedure described above.
(§5) right fore of BALB/c nude mice. When the tumor volume reached 70 mm3 after […]

[4] = tested on: NCM460 cells; assay: as above; assay type: cell-based, human; settings: 24 h; for population percentage of apoptotic cells (Caspase-3/7 Green, corrected): CMF2HC-stained NCM460 in co-culture with HCT116, 2 μM
Procedure: as §1, §2, §3, §4, §5

[5] = Systemic toxicity in nude mice bearing HCT116 xenografts (body weight, H&E histopathology, blood biochemistry); assay type: in vivo; settings: HCT116 xenograft nude mice
Procedure: The anti-tumor experiments using mice were approved by the animal ethics committees of Jinan University and The University of Hong Kong. […]
every 2 days for 24 days. The control group received equal volume of PBS only.
During the treatment period, the tumor volume and body weight of the nude mice were measured per two days. The tumor volume was calculated by the equation:
Volume (mm3) = l×w2/2, where l and w were the length and width of the tumor. At the end of the treatment, the nude mice were sacrificed and the tumor weight was […]
H&E staining and immunohistochemical (IHC) analysis of mice tissues. For […]
formaldehyde, embedded with paraffin and sectioned. Subsequently, the tissues were stained with hematoxylin and eosin for histological observation under an optical microscope (magnification: 10×). The expression of p53, Ki67, VEGFR2 and TUNEL was determined by IHC methods as reported previously. S7
Hematological analysis of nude mice bearing HCT116 xenograft. The blood samples of mice without bearing HCT116 xenograft and xenograft-bearing mice treated with 1, 3 and PBS control were collected. The plasma was obtained by centrifuging the blood sample with speed at 3000 rpm. The plasma was then subjected to hematological analysis to determine biochemical indexes of alanine aminotransferase (ALT), asparatate aminotransferase (AST), globulin (GLB), blood urea nitrogen (BUN), uric acid (UA), creatinine (CREA), lactate dehydrogenase (LDH) and creatine kinase (CK) in blood of the mice.
A2780cis xenograft nude mice model was constructed by injecting 2.5×10^6 cells to the right back flank of female BALB/c nude mice. When the tumor volume […]
animal study. The A2780cis xenograft nude mice were randomly divided into 2 groups (n = 5 per group). 1 in PBS (4 mg/kg) or PBS solvent control were injected to the nude mice by intravenous injection once every 2–3 days for 13 days. During the treatment period, the tumor volume and body weight of the nude mice were measured

| Compound | change in 1H NMR spectra after incubation in buffer [1] | incubation time at which induction of apoptosis was apparent [2] | population percentage of apoptotic cells (Caspase-3/7 Green, corrected) [3] [%] | cells undergoing apoptosis (Caspase-3/7 Green, corrected) ([3]; co-culture with HCT116 pre-treated with CMF2HC dye, HCT116 cells) [%] | population percentage of apoptotic cells (Caspase-3/7 Green, corrected) [4] [%] | cells undergoing apoptosis (Caspase-3/7 Green, corrected) ([4]; co-culture with HCT116 pre-treated with CMF2HC dye, NCM460 cells) [%] | mouse death / body weight ([5]; 2 or 4 mg kg^–1 i.v., 24 days) | blood biochemistry (organ damage indicators) ([5]; 4 mg kg^–1 i.v., 24 days, ALT, GLB, BUN, CK for 1) | histopathological analysis of tissues (H&E) ([5]; i.v., 24 days (3: 4 mg kg^–1)) |
| --- | --- | --- | --- | --- | --- | --- | --- | --- | --- |
| [Au(TPP–COO–PEG5000–OCH3)]Cl [Compound 1] | disappearance of peaks from protons of –COOCH 2CH 2– | no significant apoptosis | 25.3 | 25.04 | 4.1 | 5.01 | no mouse death or significant loss in body weight |  |  |
| [Au(TPP–CONH–PEG5000–OCH3)]Cl [Compound 2] | no observable change in the NMR spectra |  |  |  |  |  |  |  |  |
| COC(=O)c1ccc(C2=C3C=CC(=N3)C(c3ccccc3)=c3ccc4[n]3[Au+][n]3c(ccc32)C(c2ccccc2)=C2C=CC(=N2)C=4c2ccccc2)cc1.[Cl-] [Compound 3, [Au(TPP–COOCH3)]^+] |  |  |  |  |  |  |  | significant damage in the lung, liver and kidney of the mice | damage in normal lung, liver and kidney tissues |
| C1=Cc2nc1c(-c1ccccc1)c1ccc([n-]1)c(-c1ccccc1)c1nc(c(-c3ccccc3)c3ccc([n-]3)c2-c2ccccc2)C=C1.[Au+3].[Cl-] [Au1a, [Au(TPP)]Cl, reference compound] |  | 20 h | 54.6 |  | 29.3 |  |  |  |  |
